Measurements from ChEMBL document CHEMBL3217594, “Structureactivity relationships of methyl-lysine reader antagonists” (Medchemcomm, 2012).
Activity calls are given as the source filed them. No cut-off for these calls is given here.

Key:
[1] = target: T1, Chromobox protein homolog 7 (Homo sapiens, UniProt O95931); test: Antagonist activity at Flag-tagged CBX7 (unknown origin) assessed as inhibition of CBX7/biotinylated H3K9Me3 peptide interaction after 30 mins by AlphaScreen assay
T1 sequence (O95931 whole entry): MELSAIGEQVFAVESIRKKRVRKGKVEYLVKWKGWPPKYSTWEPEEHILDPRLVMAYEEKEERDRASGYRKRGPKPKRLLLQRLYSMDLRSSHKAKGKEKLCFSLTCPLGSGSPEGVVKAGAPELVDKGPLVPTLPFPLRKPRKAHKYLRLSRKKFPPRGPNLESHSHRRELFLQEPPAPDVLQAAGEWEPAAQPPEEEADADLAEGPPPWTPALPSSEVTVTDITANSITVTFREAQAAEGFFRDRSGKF

[2] = target: T2, Chromobox protein homolog 7 (Homo sapiens) (UniProt O95931); test: Antagonist activity at Flag-tagged CBX7 (unknown origin) assessed as inhibition of CBX7/biotinylated H3K9Me3 peptide interaction at 30 uM after 30 mins by AlphaScreen assay
T2 sequence (whole entry): T1 sequence (O95931 whole entry)

[3] = target: T3, Lethal(3)malignant brain tumor-like protein 4 (Homo sapiens, UniProt Q8NA19); test: Antagonist activity at L3MBTL4 (unknown origin) assessed as inhibition of L3MBTL4/biotinylated H2AK36Me1 peptide interaction after 30 mins by AlphaScreen assay
T3 sequence (Q8NA19 whole entry): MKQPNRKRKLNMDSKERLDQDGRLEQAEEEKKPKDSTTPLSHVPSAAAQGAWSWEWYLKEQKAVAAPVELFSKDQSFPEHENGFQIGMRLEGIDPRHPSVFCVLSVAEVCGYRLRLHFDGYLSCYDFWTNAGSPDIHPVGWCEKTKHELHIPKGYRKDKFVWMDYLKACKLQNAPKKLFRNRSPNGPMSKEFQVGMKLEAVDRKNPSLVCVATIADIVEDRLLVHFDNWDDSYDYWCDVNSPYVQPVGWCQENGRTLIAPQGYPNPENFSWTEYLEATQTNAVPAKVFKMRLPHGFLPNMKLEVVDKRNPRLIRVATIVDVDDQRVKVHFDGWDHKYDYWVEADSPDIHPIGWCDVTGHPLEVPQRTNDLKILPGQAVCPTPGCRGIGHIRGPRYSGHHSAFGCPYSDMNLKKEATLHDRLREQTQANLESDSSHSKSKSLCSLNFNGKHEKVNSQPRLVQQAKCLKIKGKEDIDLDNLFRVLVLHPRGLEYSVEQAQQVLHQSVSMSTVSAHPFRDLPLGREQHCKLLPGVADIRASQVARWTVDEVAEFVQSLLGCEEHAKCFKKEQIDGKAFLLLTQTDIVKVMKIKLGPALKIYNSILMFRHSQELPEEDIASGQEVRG

[4] = target: T4, MBT domain-containing protein 1 (Homo sapiens, UniProt Q05BQ5); test: Antagonist activity at MBTD1 (unknown origin) assessed as inhibition of MBTD1/biotinylated H4K20Me1 peptide interaction after 30 mins by AlphaScreen assay
T4 sequence (Q05BQ5 whole entry, the tested form may be a part): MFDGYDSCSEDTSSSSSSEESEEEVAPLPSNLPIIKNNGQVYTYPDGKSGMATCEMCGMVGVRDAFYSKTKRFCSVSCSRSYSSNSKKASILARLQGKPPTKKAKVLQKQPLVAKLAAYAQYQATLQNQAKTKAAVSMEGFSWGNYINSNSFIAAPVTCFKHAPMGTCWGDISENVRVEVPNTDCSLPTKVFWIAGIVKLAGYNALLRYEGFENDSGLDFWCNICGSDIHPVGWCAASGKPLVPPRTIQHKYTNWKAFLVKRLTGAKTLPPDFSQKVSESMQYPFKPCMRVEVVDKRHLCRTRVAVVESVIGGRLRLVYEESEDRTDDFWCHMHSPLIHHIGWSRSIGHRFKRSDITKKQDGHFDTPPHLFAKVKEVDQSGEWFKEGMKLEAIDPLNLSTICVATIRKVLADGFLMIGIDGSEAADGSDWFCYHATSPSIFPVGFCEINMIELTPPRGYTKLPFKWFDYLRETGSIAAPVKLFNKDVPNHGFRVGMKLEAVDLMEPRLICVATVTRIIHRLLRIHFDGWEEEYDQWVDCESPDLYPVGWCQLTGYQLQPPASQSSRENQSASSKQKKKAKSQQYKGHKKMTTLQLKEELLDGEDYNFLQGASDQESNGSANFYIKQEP

[5] = target: T5, Scm-like with four MBT domains protein 1 (Homo sapiens, UniProt Q9UHJ3); test: Antagonist activity at SFMBT1 (unknown origin) assessed as inhibition of SFMBT1/biotinylated H3K9Me1 peptide interaction after 30 mins by AlphaScreen assay
T5 sequence (Q9UHJ3 whole entry): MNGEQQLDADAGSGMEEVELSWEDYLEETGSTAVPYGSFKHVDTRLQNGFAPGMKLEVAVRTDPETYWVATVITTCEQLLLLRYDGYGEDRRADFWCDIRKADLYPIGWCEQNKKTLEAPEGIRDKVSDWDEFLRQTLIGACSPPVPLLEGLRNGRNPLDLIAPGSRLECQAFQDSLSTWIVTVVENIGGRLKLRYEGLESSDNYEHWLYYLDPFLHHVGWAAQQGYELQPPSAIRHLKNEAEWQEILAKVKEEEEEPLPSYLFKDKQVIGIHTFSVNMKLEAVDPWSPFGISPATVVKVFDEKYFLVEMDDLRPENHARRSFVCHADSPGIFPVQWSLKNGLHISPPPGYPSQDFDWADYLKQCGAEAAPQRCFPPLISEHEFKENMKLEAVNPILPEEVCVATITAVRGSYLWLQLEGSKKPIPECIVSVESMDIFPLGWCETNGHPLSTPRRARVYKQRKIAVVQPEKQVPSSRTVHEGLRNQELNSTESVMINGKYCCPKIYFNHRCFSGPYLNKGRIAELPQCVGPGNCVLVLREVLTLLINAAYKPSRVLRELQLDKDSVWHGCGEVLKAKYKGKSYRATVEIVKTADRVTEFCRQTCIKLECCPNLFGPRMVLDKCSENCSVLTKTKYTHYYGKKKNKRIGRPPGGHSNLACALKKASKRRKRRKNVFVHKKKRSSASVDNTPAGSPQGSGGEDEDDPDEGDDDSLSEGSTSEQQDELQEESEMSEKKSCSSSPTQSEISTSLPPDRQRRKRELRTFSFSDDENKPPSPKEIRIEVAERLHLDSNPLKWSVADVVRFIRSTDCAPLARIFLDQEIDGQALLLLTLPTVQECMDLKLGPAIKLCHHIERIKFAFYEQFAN

[6] = target: T6, Lethal(3)malignant brain tumor-like protein 1 (Homo sapiens) (UniProt Q9Y468); conditions: Plus RIL, 30 uM
T6 sequence (whole entry): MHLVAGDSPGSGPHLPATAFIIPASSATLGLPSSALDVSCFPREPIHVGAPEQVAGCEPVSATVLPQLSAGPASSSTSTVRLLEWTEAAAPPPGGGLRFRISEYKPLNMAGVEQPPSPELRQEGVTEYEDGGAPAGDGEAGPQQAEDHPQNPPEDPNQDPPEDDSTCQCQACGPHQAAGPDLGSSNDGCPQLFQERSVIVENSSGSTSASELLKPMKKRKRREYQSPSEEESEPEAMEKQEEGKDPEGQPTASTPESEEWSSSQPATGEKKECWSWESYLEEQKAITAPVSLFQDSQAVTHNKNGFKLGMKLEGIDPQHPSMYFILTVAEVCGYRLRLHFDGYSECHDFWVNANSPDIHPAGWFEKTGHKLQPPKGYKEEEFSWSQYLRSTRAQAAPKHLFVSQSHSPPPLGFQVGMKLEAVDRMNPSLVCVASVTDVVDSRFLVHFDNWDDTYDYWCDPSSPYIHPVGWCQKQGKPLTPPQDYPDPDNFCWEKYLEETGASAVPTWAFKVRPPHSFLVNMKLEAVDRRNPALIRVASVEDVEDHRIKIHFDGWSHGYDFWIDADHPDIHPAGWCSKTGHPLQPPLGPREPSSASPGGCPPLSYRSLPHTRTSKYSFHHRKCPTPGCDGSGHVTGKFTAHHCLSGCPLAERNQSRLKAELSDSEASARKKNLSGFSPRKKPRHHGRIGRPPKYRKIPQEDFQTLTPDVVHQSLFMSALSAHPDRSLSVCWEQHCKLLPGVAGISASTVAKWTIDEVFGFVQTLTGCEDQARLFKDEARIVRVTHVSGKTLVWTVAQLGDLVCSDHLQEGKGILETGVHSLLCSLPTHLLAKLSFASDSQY

[7] = target: T4, MBT domain-containing protein 1; test: Antagonist activity at MBTD1 (unknown origin) assessed as inhibition of MBTD1/biotinylated H4K20Me1 peptide interaction at 30 uM after 30 mins by AlphaScreen assay

| Compound | IC50 [1] [µM] | inhibition [2] | IC50 [4] [µM] | IC50 [5] [µM] | inhibition [7] | IC50 [3] [µM] | inhibition [6] |
| --- | --- | --- | --- | --- | --- | --- | --- |
| O=C(c1cccc(Br)c1)N1CCC(N2CCCC2)CC1 | > 30 | 11% | > 30 | > 30 | 44% | 15.6 | – |
| O=S(=O)(c1cccc(Br)c1)N1CCC(N2CCCC2)CC1 | > 30 | inactive | 21.9 | > 30 | – | > 30 | 48% |
| CN(C)C1CCN(C(=O)c2cccc(Br)c2)CC1 | > 30 | inactive | > 30 | > 30 | 1% | > 30 | 5% |
| CN1CCCC1C1CCN(C(=O)c2cccc(Br)c2)CC1 (centres undefined) | > 30 | inactive | > 30 | > 30 | 32% | > 30 | 3% |
| C[N+]1(C2CCN(C(=O)c3cccc(Br)c3)CC2)CCCC1 | > 30 | 17% | > 30 | > 30 | 3% | > 30 | inactive |
| O=C(O)c1cccc(C(=O)N2CCC(N3CCCC3)CC2)c1 | > 30 | 4% | > 30 | > 30 | 4% | > 30 | 31% |
| O=C(c1cccc(Br)c1)N1CCN(C2CCCC2)CC1 | > 30 | 1% | > 30 | > 30 | inactive | > 30 | inactive |
| CC(c1cccc(Br)c1)N1CCC(N2CCCC2)CC1 (racemic) | > 30 | inactive | 9 | > 30 | – | > 30 | 25% |
| CNC1CCN(C(=O)c2cccc(Br)c2)CC1 | > 30 | 3% | > 30 | > 30 | 3% | > 30 | inactive |

Continued, in another order:

| IC50 [1] [µM] | inhibition [2] | IC50 [4] [µM] | IC50 [5] [µM] | inhibition [7] | Compound | IC50 [3] [µM] | inhibition [6] |
| --- | --- | --- | --- | --- | --- | --- | --- |
| > 30 | 3% | 29.7 | > 30 | – | O=C(c1cccc(Br)c1)N1CCC(N2CCCCC2)CC1 | > 30 | 5% |
| > 30 | inactive | 9.2 | > 30 | – | O=C(c1cccc(Br)c1)N1CCC(C2CCCN2)CC1 (centres undefined) | > 30 | 6% |
| > 30 | 11% | > 30 | > 30 | 20% | O=C(c1cccc(Br)c1)N1CCC(N2CCC2)CC1 | > 30 | 32% |
| > 30 | inactive | 18.6 | > 30 | – | Brc1cccc(CN2CCC(N3CCCC3)CC2)c1 | > 30 | 20% |
| > 30 | inactive | > 30 | > 30 | 16% | CC1CCCN1C1CCN(C(=O)c2cccc(Br)c2)CC1 (centres undefined) | > 30 | 6% |
| > 30 | 4% | > 30 | > 30 | 13% | O=C(c1cccc(Br)c1)N1CCC(N2CCCC2)C1 (centres undefined) | > 30 | 18% |
